Laboratory results taken from patent US6664263B2, “1,8-naphthalimide imidazo{4,5,1-de}acridones with anti-tumor activity” (priority 2000, dated 2003).
Read-outs that look alike come from different tables or passages of the source.

Experiments:
[1] = test system: HT29 cells; experiment: cells; details: for IC50: read-out: IC50 - drug concentration which causes 50% cell growth inhibition
Description: (§1) Cancer Cell Lines. Human colon carcinoma HCT116 and HT29, human melanoma MELSK2, human lung cancer A549, human leukemia HL60 and human breast cancer MCF7 cells were purchased from the American Type Culture Collection (Rockville, Md.). Human pancreatic tumor cell lines 6.03 and 10.05 were a gift from Dr. Elizabeth Jaffe, Johns Hopkins University.
(§2) In Vitro Cytotoxicity Studies. Cells were seeded in quadruplicate for each studied concentration in 96-well plates (100 μL of medium containing 2000-2500 cells per well) and were allowed to grow for 24 h (day 0). Stock solutions (2.5 mM) of test compounds were prepared freshly by dissolving their free base forms in distilled water-DMSO (50:50) mixture containing two equivalents of methanesulfonic acid and then diluted in distilled water to the concentration of 500 μM. These solutions were used to prepare 2 μM working solution and its 10-fold serial dilutions in appropriate media. 100 μL of drug containing medium or vehicle (control) was added to each well on day 1. The cytotoxicity was determined using two different methods: the MTT-based, CellTiter96™ Non-Radioactive Cell Proliferation Assay (Promega Inc., Madison, Wis.) according to instructions provided by the manufacturer, and/or the sulforhodamine B (SRB) method (Skehan et al., J. Natl. Cancer Inst. 82:1107-1112 (1990)). At the time at which drugs were added assays were performed on extra reference plates to determine the cell population density at time 0 (T0). After 96 h incubation at 37 ° C. in a humidified atmosphere containing 5% CO2, the assays were performed on test (T) and control (C) plates. The absorbance of the wells was determined by a Microplate Reader at […]. Cellular responses were calculated from the data as described previously: 100×[(T−T0)/(C−T0)] for T>T0 and 100×[(T−T0)/T0] for T<T0. (Monks et al., J. Natl. Cancer Inst. 83:757-766 (1991)).
(§3) At the end of the test period the wells are treated with the MTT dye solution and incubated for 4 hours. Cells which are alive convert the yellow tetrazolium dye into the blue, insoluble formazan product. This precipitate is solubilized, and the absorption at 570 nm is read in an ELISA reader.

[2] = test system: HCT116 cells; experiment: cells; details: for IC50: read-out: IC50 - drug concentration which causes 50% cell growth inhibition; for growth inhibition of HCT116 at 1 nM: MTT dose-response
Description: as §1, §2, §3

[3] = test system: A549 cells; experiment: cells; details: for IC50: read-out: IC50 - drug concentration which causes 50% cell growth inhibition
Description: as §1, §2, §3

[4] = test system: MELSK2 cells; experiment: cells; details: for IC50: read-out: IC50 - drug concentration which causes 50% cell growth inhibition
Description: as §1, §2, §3

[5] = test system: HL60 cells; experiment: cells; assay type: cell-based; details: for IC50: read-out: IC50 - drug concentration which causes 50% cell growth inhibition
From the text: (§4) In Vitro Cytotoxicity Studies.

[6] = test system: MCF7 cells; experiment: cells; assay type: cell-based; details: for IC50: read-out: IC50 - drug concentration which causes 50% cell growth inhibition
From the text: as §4

[7] = test system: 10.05 pancreatic cancer line; experiment: Flow cytometry (FACS) cell cycle analysis, 10.05; assay type: cell-based, human; details: 10.05 cells
Description: (§5) Flow Cytometry Analysis. A suspension of 0.5×10^6 cells in 8 ml of medium were placed in 25 cm^2 T flask and allowed to attach for 24 h. The cells were then exposed for 6 h to 100 nM of drug . After removal of drug the cells were washed with PBS. Fresh medium (8 ml) was added and incubation at 37° C. in 5% CO2 in complete humidity was continued for an additional five days. At appropriate intervals, treated and control cells were released from flasks by incubation with trypsin (0.05 mg/ml)/EDTA (0.02 mg/ml) for 5 min at 37° C., collected in ice-cold PBS, combined with the removed medium that might contain floating cells, and centrifuged at 4° C. Cell pellets were re-suspended in PBS containing 1% fetal bovine serum. The cells were fixed and stained for fluorescence-activated cell sorting according to standard procedures (Crissman et al., Cytometry 3:84-90(1992)). Fluorescence histograms were obtained on a Coulter EPICS753 Cell Sorter using an argon laser and mean peaks were analyzed.
(§6) Similar cell cycle experiments were carried out on the 10.05 pancreatic cancer line.

[8] = test system: HCT116, HT29, A549 and Mel.SK2 tumor cell lines; experiment: Sulforhodamine B (SRB) assay on the four tumor types (FIG. 4); assay type: cell-based; details: varying concentrations
From the text: as §4

[9] = test system: 10.05 pancreatic cancer cells; experiment: Morphological examination of treated cells; assay type: cell-based, human; details: 10.05 cells, treated vs untreated
From the text: The FACS analysis evidence of apoptosis was substantiated by morphological examination of the treated 10.05 pancreatic cancer cells. […] Similar results were obtained with the 6.03 cells.

[10] = test system: NCI 60 human tumor cell line panel; experiment: NCI 60 human tumor cell line panel; assay type: cell-based; details: NCI 60 panel
[11] = test system: pancreatic cell line 10.05; experiment: SRB-based assay, pancreatic cell line 10.05 (FIG. 5); design: species or system human; details: 120 hrs exposure
From the text: as §4
(§7) The compound of Example 2 is also potently cytotoxic against extremely refractory pancreatic cancer cell lines. FIG. 5 presents the results of an SRB-based assay on the toxicity of Example 2 against the four cell lines mentioned above, and against two pancreatic cell lines, 6.03 and 10.05 (obtained from Dr. Elizabeth Jaffe, Johns Hopkins University, Baltimore Md.). […] were exposed to the agent for 120 hrs. It is clear that both of these lines are sensitive to the compound.

[12] = test system: 6.03 pancreatic cancer cells; experiment: Flow cytometry (FACS) cell cycle analysis, 6.03; assay type: cell-based, human; details: 6.03 cells
Description: as §5, §6

[13] = test system: HCT 116 colon cancer cell; experiment: Flow cytometry (FACS) cell cycle analysis, HCT116; assay type: cell-based, human; details: 100 nM for 6 hrs, then culture
Description: as §5
In order to determine the mode of cell death induced by the compounds of the invention, the effect of the compound of Example 2 on the cell cycle was studied, utilizing Fluorescence Activated Cell Sorting SACS) analysis. HCT 116 colon cancer cell were treated with the compound of Example 2 for 6 hrs at a concentration of 100 nM, and then allowed to grow in culture for varying times.

[14] = test system: HCT116, HT29, A549 and MelSK2 tumor cell lines; experiment: MTT cell proliferation assay at 100 nM on four tumor cell lines (FIG. 2); assay type: cell-based; details: 96 hours; for cytotoxic activity against the three adenocarcinomas: HCT116, HT29, A549
Description: as §1
as §2, with “(Monks et al., J. Natl. Cancer Inst. 83:757-766 (1991)).” left out
At the end of the test period the wells are treated with the MTT dye solution and incubated for 4 hours. […] This precipitate is solubilized, and the absorption at 570 nm is read in an ELISA reader.

[15] = test system: pancreatic cell line 6.03; experiment: SRB-based assay, pancreatic cell line 6.03 (FIG. 5); design: species or system human; details: 120 hrs exposure
From the text: as §4, §7

[16] = read-out: LC50 - drug concentration which causes 50% cell death, HT29, 96 h incubation
[17] = read-out: LC50 - drug concentration which causes 50% cell death, HCT116, 96 h incubation
[18] = read-out: LC50 - drug concentration which causes 50% cell death, A549, 96 h incubation
[19] = read-out: LC50 - drug concentration which causes 50% cell death, MELSK2, 96 h incubation
[20] = HL60, 96 h incubation, read-out: LC50 - drug concentration which causes 50% cell death
[21] = MCF7, 96 h incubation, read-out: LC50 - drug concentration which causes 50% cell death

SMILES	IC50 ([1]; HT29, 96 h incubation) [nM]	CC50 [1, 16] [nM]	IC50 ([2]; HCT116, 96 h incubation) [nM]	CC50 [2, 17] [nM]	IC50 ([3]; A549, 96 h incubation) [nM]	CC50 [3, 18] [nM]	IC50 ([4]; MELSK2, 96 h incubation) [nM]	CC50 [4, 19] [nM]	IC50 ([5]; HL60, 96 h incubation) [nM]	CC50 [5, 20] [nM]	IC50 ([6]; MCF7, 96 h incubation) [nM]	CC50 [6, 21] [nM]	CC50 [1] [nM]	CC50 [2] [nM]	growth inhibition of HCT116 at 1 nM ([2]; FIG. 3)	CC50 [3] [nM]	CC50 [4] [nM]	cytotoxic activity against the three adenocarcinomas [14]	CC50 [5] [nM]	CC50 [6] [nM]	further results
Nc1cc2c3c(cccc3c1)C(=O)N(CCCN1CCN(CCCNc3ccc4ncn5c6ccccc6c(=O)c3c45)CC1)C2=O [Example 6]	8	750	2.2	80	2.5	100	15	750	5	450	32	> 1000									
O=C1c2cccc3cc([N+](=O)[O-])cc(c23)C(=O)N1CCCN1CCN(CCCNc2ccc3ncn4c5ccccc5c(=O)c2c34)CC1 [Example 2]	0.9		0.5		0.6		4		3.5		3.2		65	32	almost complete growth inhibition	35	60	outstanding cytotoxic activity	33	> 1000	apoptosis (growth of the sub-G1 fraction) at 144 hrs [7]: substantial apoptosis; cytotoxic activity in the SRB assay compared with MTT [8]: essentially mirror the results obtained with the MTT end-point; morphology of treated cells [9]: evidence of chromatin fragmentation; median activity, growth inhibition of all of the tumor cell lines [10]: nanomolar range; effect on line 10.05 at 1 μM [11]: substantial cell death; apoptosis by cell cycle analysis [12]: strong evidence of apoptosis; cell cycle effect at 24 hrs ([13]; 24 hrs): growth arrested at G2-M; sub-G1 fraction (apoptotic death) at 96 hrs ([13]; 96 hrs): dominated the distribution; effect on line 6.03 at 100 nM [15]: growth arrested
CN(CCCNc1ccc2ncn3c4ccccc4c(=O)c1c23)CCCN1C(=O)c2cccc3cc([N+](=O)[O-])cc(c23)C1=O [Example 1]	25	400	8	220	25	500	150	> 1000	120	500	50	> 1000									
CN(C)CCN1C(=O)c2cccc3cc([N+](=O)[O-])cc(c23)C1=O [Mitonafide, mitonafide, reference compound]																					IC50 ([1]; Homo sapiens, HT-29, 96 h): 300 nM; concentration at which almost complete growth inhibition is reached ([2]; HCT116, MTT dose-response, FIG. 3): 1 µM; IC50 ([2]; Homo sapiens, HCT-116, 96 h): 250 nM; CC50 ([2]; Homo sapiens, HCT-116, 96 h, read-out: LC50 - drug concentration which causes 50% cell death): > 1000 nM; IC50 ([3]; Homo sapiens, A549, 96 h): 65 nM; CC50 ([3]; Homo sapiens, A549, 96 h, read-out: LC50 - drug concentration which causes 50% cell death): 800 nM; IC50 ([4]; Homo sapiens, 96 h): 150 nM; CC50 ([4]; Homo sapiens, 96 h, read-out: LC50 - drug concentration which causes 50% cell death): 700 nM; activity at 100 nM drug concentration ([14]; HCT116, HT29, A549, MelSK2): not very active; IC50 ([5]; Homo sapiens, HL-60, 96 h): 45 nM; CC50 ([5]; Homo sapiens, HL-60, 96 h, read-out: LC50 - drug concentration which causes 50% cell death): 400 nM; IC50 ([6]; Homo sapiens, MCF7, 96 h): 245 nM; CC50 ([6]; Homo sapiens, MCF7, 96 h, read-out: LC50 - drug concentration which causes 50% cell death): > 1000 nM
O=C1c2cccc3cc([N+](=O)[O-])cc(c23)C(=O)N1CCCN1CCN(CCCNc2ccc3ncn4c5ccc(F)cc5c(=O)c2c34)CC1 [Example 4]	1.5		0.5		0.6		4		3.5		3.5		35	35	almost complete growth inhibition	35	70	outstanding cytotoxic activity	33	> 1000	
Nc1cc2c3c(cccc3c1)C(=O)N(CCCN1CCN(CCCNc3ccc4ncn5c6ccc(F)cc6c(=O)c3c45)CC1)C2=O [Example 8]	3.5		1.8		2		20		4		46		> 1000	230		150	> 1000		450	> 1000	
